For series [1], the target named is T1, Receptor-type tyrosine-protein kinase FLT3 (Homo sapiens, UniProt P36888).
T1 sequence (P36888 whole entry): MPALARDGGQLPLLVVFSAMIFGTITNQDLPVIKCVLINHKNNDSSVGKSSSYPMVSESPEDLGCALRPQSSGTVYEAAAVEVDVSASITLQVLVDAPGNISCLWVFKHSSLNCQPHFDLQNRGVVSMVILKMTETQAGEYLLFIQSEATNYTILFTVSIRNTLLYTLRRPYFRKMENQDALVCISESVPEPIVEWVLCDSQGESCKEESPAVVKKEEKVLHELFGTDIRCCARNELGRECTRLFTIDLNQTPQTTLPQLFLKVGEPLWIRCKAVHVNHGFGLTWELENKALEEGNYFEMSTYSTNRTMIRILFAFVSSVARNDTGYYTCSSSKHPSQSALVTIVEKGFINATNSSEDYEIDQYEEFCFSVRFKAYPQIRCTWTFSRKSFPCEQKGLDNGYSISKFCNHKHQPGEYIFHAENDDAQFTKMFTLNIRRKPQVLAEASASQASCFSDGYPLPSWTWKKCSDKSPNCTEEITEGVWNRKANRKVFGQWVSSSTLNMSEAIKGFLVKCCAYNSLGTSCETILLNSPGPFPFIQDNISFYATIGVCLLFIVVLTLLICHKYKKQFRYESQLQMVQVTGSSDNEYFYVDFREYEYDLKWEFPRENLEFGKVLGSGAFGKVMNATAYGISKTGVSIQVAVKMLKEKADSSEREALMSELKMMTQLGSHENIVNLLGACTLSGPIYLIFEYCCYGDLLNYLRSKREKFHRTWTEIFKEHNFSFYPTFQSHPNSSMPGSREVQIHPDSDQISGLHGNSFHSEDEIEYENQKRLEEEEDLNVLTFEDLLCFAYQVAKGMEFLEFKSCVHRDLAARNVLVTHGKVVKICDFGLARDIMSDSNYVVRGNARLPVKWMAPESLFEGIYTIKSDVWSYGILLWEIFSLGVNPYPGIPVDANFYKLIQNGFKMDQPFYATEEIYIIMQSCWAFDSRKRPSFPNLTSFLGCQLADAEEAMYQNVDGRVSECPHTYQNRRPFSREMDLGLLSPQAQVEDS
Description: Inhibition of wild type FLT3

Series [2] deals with Vascular endothelial growth factor receptor 2 (Homo sapiens, UniProt P35968).
The nature of series [3]: AUC (0 to 4 hrs) in rat at 2 mg/kg, iv. In kind it is ADME, organism-based. On the set-up: time < 4 hr, dose 2 mg/kg, route intravenous. The conditions noted are these: plasma.
Series [4] has as its target Vascular endothelial growth factor receptor 1 (Homo sapiens, UniProt P17948).
The target in series [5] is T2, Aurora kinase A (Homo sapiens, UniProt O14965).
T2 sequence (O14965 whole entry): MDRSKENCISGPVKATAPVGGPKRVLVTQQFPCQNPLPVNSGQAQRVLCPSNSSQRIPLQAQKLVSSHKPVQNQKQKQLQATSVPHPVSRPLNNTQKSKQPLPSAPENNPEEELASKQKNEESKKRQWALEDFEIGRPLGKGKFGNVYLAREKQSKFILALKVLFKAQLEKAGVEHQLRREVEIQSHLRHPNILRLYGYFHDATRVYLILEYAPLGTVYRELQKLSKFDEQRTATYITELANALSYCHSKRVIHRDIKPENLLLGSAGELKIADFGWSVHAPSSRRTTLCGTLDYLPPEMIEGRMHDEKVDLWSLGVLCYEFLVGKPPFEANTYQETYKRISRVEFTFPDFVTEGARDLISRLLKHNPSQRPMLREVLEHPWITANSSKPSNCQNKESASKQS

In series [6] the test system is MOLM-13. The series is described as follows: cells. The conditions noted are these: Homo sapiens.
Description: Antiproliferative activity against human MOLM13 cells expressing FLT3-ITD mutant

The text below walks through data of ChEMBL document CHEMBL2062390, “3-Phenyl-1H-5-pyrazolylamine-based derivatives as potent and efficacious inhibitors of FMS-like tyrosine kinase-3 (FLT3)” (Bioorg Med Chem Lett, 2012).

Chain of Vascular endothelial growth factor receptor 1 (P17948 whole entry): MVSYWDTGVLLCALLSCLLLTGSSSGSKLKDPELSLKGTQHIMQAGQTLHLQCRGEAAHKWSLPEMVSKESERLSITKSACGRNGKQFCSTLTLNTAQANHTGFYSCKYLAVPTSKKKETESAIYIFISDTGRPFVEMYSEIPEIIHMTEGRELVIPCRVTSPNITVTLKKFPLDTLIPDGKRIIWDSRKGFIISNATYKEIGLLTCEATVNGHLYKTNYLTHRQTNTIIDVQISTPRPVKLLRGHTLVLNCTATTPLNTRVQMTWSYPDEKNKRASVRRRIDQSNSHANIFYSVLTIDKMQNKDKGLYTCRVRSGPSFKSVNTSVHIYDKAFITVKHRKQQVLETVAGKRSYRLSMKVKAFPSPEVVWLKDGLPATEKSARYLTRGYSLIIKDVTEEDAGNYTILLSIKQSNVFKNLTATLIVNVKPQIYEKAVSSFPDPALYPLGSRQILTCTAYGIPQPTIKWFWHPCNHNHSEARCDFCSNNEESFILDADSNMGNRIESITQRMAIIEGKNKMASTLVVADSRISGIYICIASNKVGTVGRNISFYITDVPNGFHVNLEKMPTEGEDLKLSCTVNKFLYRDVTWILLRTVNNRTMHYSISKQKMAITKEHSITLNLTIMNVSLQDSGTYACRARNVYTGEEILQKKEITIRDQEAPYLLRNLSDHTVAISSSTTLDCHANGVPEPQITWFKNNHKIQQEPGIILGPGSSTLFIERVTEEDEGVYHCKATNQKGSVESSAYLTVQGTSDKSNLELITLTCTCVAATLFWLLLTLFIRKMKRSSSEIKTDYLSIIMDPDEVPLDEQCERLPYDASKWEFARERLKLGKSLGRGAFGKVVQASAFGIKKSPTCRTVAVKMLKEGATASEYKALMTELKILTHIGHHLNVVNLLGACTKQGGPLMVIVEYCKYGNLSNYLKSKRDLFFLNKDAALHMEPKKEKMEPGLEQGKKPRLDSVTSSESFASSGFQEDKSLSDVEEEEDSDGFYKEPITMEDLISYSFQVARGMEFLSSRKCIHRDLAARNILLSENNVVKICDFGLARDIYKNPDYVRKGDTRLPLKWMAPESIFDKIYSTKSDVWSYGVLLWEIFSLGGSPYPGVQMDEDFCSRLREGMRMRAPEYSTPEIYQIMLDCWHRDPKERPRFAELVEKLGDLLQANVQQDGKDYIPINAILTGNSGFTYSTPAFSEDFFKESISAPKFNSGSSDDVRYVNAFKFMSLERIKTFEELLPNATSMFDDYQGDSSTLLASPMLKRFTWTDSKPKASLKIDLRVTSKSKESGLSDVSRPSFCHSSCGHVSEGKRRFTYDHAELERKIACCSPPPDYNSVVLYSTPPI
Chain of Vascular endothelial growth factor receptor 2 (P35968 whole entry): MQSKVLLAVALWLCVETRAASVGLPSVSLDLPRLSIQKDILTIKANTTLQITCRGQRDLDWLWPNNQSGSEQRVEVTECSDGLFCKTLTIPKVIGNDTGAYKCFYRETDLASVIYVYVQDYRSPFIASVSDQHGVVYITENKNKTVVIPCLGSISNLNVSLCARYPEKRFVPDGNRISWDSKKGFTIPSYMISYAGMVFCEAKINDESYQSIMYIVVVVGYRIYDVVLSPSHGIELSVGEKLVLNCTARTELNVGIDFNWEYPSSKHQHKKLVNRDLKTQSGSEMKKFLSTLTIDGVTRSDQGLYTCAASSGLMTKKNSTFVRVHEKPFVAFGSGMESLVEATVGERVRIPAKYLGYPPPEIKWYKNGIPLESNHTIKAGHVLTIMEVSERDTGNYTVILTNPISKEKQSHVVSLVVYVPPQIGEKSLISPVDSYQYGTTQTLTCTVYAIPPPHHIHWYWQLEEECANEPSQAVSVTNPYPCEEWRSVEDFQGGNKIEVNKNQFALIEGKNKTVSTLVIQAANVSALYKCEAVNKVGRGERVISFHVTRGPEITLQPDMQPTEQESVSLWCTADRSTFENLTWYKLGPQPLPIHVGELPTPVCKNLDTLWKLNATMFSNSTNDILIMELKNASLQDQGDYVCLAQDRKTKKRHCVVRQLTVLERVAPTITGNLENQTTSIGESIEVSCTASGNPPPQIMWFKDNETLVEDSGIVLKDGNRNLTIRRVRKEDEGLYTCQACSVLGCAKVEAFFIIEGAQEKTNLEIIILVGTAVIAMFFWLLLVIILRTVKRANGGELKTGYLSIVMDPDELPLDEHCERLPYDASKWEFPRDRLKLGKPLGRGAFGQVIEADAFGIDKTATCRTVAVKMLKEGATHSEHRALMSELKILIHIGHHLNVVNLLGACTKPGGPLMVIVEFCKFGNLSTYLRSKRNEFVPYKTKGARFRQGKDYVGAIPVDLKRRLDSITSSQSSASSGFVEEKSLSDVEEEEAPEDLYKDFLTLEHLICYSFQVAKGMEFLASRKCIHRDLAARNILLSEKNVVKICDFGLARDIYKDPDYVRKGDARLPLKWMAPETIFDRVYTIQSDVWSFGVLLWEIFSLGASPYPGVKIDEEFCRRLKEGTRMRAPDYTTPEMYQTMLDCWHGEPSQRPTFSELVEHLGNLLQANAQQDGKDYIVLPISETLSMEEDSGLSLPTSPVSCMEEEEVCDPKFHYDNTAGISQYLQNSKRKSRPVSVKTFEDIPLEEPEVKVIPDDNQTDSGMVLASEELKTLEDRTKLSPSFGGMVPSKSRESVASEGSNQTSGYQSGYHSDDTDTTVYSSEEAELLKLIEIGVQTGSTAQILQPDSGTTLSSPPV

One may read the IC50 as the point on the concentration scale where inhibition reaches its midpoint. As usually defined, the AUC(0-t) is exposure summed from dosing to a finite time, without extrapolation to infinity. Broadly, the GI50 is the concentration that inhibits growth by half. In the case of `Cc1nc(Nc2cc(-c3ccc(CNC(=O)OCc4cc(C)on4)cc3)n[nH]2)cc(N2CCN(CCO)CC2)n1`, the half-inhibitory concentration (IC50) in series [1] was 0.072 µM; in series [2], more than 1 µM; in series [4], more than 1 µM; in series [5], more than 1 µM. In series [3], the AUC(0-t) at 4 h is 0.443 µg·h/mL. In series [6], this compound yielded a concentration for 50% growth inhibition (GI50) of 0.005 µM.

`Cc1nc(Nc2cc(-c3ccc(CNC(=O)OCc4ccccc4)cc3)n[nH]2)cc(N2CCN(CCO)CC2)n1`: the IC50 came out at 0.01 µM in series [1], 0.24 µM in series [2], 0.29 µM in series [4] and 0.17 µM in series [5]. This compound also registered a GI50 in series [6] of 0.002 µM.

As to `CN1CCN(c2ccc(C(=O)Nc3cc(-c4ccc(NC(=O)OCc5ccccc5)cc4)n[nH]3)cc2)CC1`, the IC50 in series [1] was 0.007 µM; in series [2], 0.048 µM; in series [4], 0.2 µM; in series [5], more than 1 µM. Moreover, in series [6], growth was halved (GI50) at 0.016 µM.

Regarding `O=C(NCc1ccc(-c2cc(NC(=O)c3ccc(OCCN4CCCC4)cc3)[nH]n2)cc1)OCc1cccnc1`, the IC50 in series [1] was 0.035 µM; in series [2], more than 1 µM; in series [4], more than 1 µM; in series [5] it was more than 1 µM. The compound further displayed an area under the curve AUC(0-t) at 4 h in series [3] of 0.266 µg·h/mL. Further, halving of growth in series [6] (GI50) required 0.008 µM.

`CN1CCN(c2ccc(C(=O)Nc3cc(-c4ccc(CNC(=O)OCc5ccccc5)cc4)n[nH]3)cc2)CC1`: the IC50 was 0.006 µM in series [1], 0.1 µM in series [2], 0.02 µM in series [4] and 0.88 µM in series [5]. In series [6], this compound had a GI50 of 0.002 µM.

Consider `O=C(Nc1ccc(-c2cc(NC(=O)c3ccc(OCCN4CCCC4)cc3)[nH]n2)cc1)Oc1ccccc1`, for which the IC50 in series [1] was 0.04 µM; in series [2] it was 0.3 µM; in series [4], more than 1 µM; in series [5], more than 1 µM. Further, the GI50 in series [6] worked out at 0.047 µM.

For `Cc1nc(Nc2cc(-c3ccc(CNC(=O)OCc4ccccc4)cc3)n[nH]2)cc(N2CCN(C)CC2)n1`, the 50% inhibitory concentration (IC50) in series [1] came out at 0.018 µM; in series [2], 0.31 µM; in series [4] it was 0.42 µM; in series [5] it was 0.43 µM. Besides, in series [6], the concentration for 50% growth inhibition (GI50) was 0.002 µM.

With `CN1CCN(c2ccc(C(=O)Nc3cc(-c4ccc(CNS(=O)(=O)c5ccccc5)cc4)n[nH]3)cc2)CC1`, the 50% inhibitory concentration (IC50) is 0.14 µM in series [1], more than 1 µM in series [2], more than 1 µM in series [4] and 1 µM in series [5]. In series [6], this compound came in with a 50% growth inhibitory concentration (GI50) of 0.047 µM.

With `CN1CCN(c2ccc(C(=O)Nc3cc(-c4ccc(NS(=O)(=O)c5ccccc5)cc4)n[nH]3)cc2)CC1`, the half-inhibitory concentration (IC50) in series [2], in series [4] and in series [5] was more than 1 µM throughout. For the same compound, in series [6], the GI50 worked out at 0.5 µM.

On to `Cc1nc(Nc2cc(-c3ccc(CNC(=O)OCc4cccnc4)cc3)n[nH]2)cc(N2CCN(CCO)CC2)n1`, for which the concentration for half-maximal inhibition (IC50) is 0.021 µM in series [1], more than 1 µM in series [2], more than 1 µM in series [4] and more than 1 µM in series [5]. In series [6], this compound yielded a GI50 of 0.003 µM.

Regarding `CN1CCN(Cc2ccc(C(=O)Nc3cc(-c4ccc(CNC(=O)OCc5ccccc5)cc4)n[nH]3)cc2)CC1`, the IC50 in series [1] is 0.007 µM; in series [2] it was 0.17 µM; in series [4], 0.32 µM; in series [5] it was more than 1 µM. The compound further had a concentration for 50% growth inhibition (GI50) in series [6] of 0.004 µM.

For `CN1CCN(c2ccc(C(=O)Nc3cc(-c4ccc(CNC(=O)Oc5ccccc5)cc4)n[nH]3)cc2)CC1`, the IC50 in series [1] is 0.016 µM; in series [2], 0.092 µM; in series [4] it was 0.054 µM; in series [5], more than 1 µM. The same compound registered a GI50 in series [6] of 0.02 µM.

For the compound `O=C(NCc1ccc(-c2cc(NC(=O)c3ccc(OCCCN4CCCC4)cc3)[nH]n2)cc1)OCc1ccccc1`, the concentration for half-maximal inhibition (IC50) in series [1] is 0.019 µM; in series [2], 0.24 µM; in series [4] it was 0.18 µM; in series [5], more than 1 µM. Moreover, the GI50 in series [6] is 0.009 µM.

For `O=C(NCc1ccc(-c2cc(NC(=O)c3ccc(OCCN4CCOCC4)cc3)[nH]n2)cc1)OCc1ccccc1`, the half-maximal inhibitory concentration (IC50) is 0.017 µM in series [1], 0.37 µM in series [2], 0.37 µM in series [4] and 0.59 µM in series [5]. The compound also returned a GI50 in series [6] of 0.008 µM.

As for `Cc1cc(COC(=O)NCc2ccc(-c3cc(NC(=O)c4ccc(OCCN5CCCC5)cc4)[nH]n3)cc2)no1`, the concentration for half-maximal inhibition (IC50) in series [1] was 0.043 µM; in series [2] it was 0.48 µM; in series [4], 0.59 µM; in series [5], more than 1 µM. For the same compound, the AUC(0-t) at 4 h in series [3] worked out at 0.448 µg·h/mL. The compound also yielded a GI50 in series [6] of 0.002 µM.

Turning to `Cc1nc(Nc2cc(-c3ccc(CNC(=O)OCc4cccnc4)cc3)n[nH]2)cc(N2CCN(C)CC2)n1`, the IC50 in series [1] was 0.004 µM; in series [2], more than 1 µM; in series [4], more than 1 µM; in series [5], more than 1 µM. For the same compound, the 50% growth inhibitory concentration (GI50) in series [6] amounted to 0.002 µM.

For the compound `CN1CCN(c2ccc(C(=O)Nc3cc(-c4ccc(NC(=O)Oc5ccccc5)cc4)n[nH]3)cc2)CC1`, the IC50 in series [1] is 0.012 µM; in series [2] it was 0.18 µM; in series [4], 0.32 µM; in series [5] it was more than 1 µM. Moreover, the GI50 in series [6] came out at 0.005 µM.

As to `Cc1nc(Nc2cc(-c3ccc(CNC(=O)OCc4ccccc4)cc3)n[nH]2)cc(N2CCNCC2)n1`, the concentration for half-maximal inhibition (IC50) was 0.017 µM in series [1], 0.19 µM in series [2], 0.082 µM in series [4] and 0.35 µM in series [5]. This compound gave a 50% growth inhibitory concentration (GI50) in series [6] of 0.006 µM.

For `CN1CCN(c2ccc(C(=O)Nc3cc(-c4ccc(CNC(=O)OCc5cccnc5)cc4)n[nH]3)cc2)CC1`, the IC50 was 0.014 µM in series [1], 0.22 µM in series [2], 0.25 µM in series [4] and more than 1 µM in series [5]. In series [3], the AUC(0-t) at 4 h is 0.272 µg·h/mL. The compound further had a GI50 in series [6] of 0.002 µM.

Regarding `O=C(NCc1ccc(-c2cc(NC(=O)c3ccc(OCCN4CCOCC4)cc3)[nH]n2)cc1)OCc1cccnc1`, the IC50 in series [1] is 0.02 µM; in series [2], more than 1 µM; in series [4], more than 1 µM; in series [5] it was more than 1 µM. In series [6], halving of growth (GI50) required 0.007 µM.

Consider `Cc1cc(COC(=O)NCc2ccc(-c3cc(NC(=O)c4ccc(OCCN5CCOCC5)cc4)[nH]n3)cc2)no1`, for which the concentration for half-maximal inhibition (IC50) was 0.052 µM in series [1], more than 1 µM in series [2], more than 1 µM in series [4] and more than 1 µM in series [5]. In series [3], this compound displayed an exposure AUC(0-t) at 4 h of 1.03 µg·h/mL. Growth in series [6] was halved (GI50) at 0.004 µM.

As to `CCOC(=O)NCc1ccc(-c2cc(NC(=O)c3ccc(N4CCN(C)CC4)cc3)[nH]n2)cc1`, the 50% inhibitory concentration (IC50) in series [1] was 0.017 µM; in series [2], 0.56 µM; in series [4], more than 1 µM; in series [5], more than 1 µM. Besides, it took 0.048 µM to inhibit growth in series [6] by half (GI50).

As for `Cc1cc(COC(=O)NCc2ccc(-c3cc(NC(=O)c4ccc(N5CCN(C)CC5)cc4)[nH]n3)cc2)no1`, the IC50 was 0.027 µM in series [1], 0.37 µM in series [2], 0.35 µM in series [4] and more than 1 µM in series [5]. This compound had a 50% growth inhibitory concentration (GI50) in series [6] of 0.001 µM.

Regarding `Cc1nc(Nc2cc(-c3ccc(CNC(=O)OCc4cc(C)on4)cc3)n[nH]2)cc(N2CCN(C)CC2)n1`, the IC50 in series [1] was 0.005 µM; in series [2], more than 1 µM; in series [4], more than 1 µM; in series [5], more than 1 µM. This compound also displayed a 50% growth inhibitory concentration (GI50) in series [6] of 0.004 µM.
